Patent US20210293769A1, “METHOD FOR CULTURING CANCER TISSUE OR TISSUE ANALOGOUS TO CANCER TISSUE” (Chugai Seiyaku Kabushiki Kaisha, priority 2018, published 2021)

Tests used:
Type in all cases: cell-based, human
[1] = tested on: PLR123 organoids; test: Regrowth of SN-38-treated PLR123 organoids on re-culture, CellTiter-Glo 3D Cell Viability Assay; conditions: BSO 200 μM and/or AUR 200 nM added upon re-culture of SN-38-treated organoids; n=4, FIG. 13
Experimental: Specifically, 7-ethyl-10-hydroxycamptothecin (SN-38, Cat #H0165, Merck) was added to the organoids (day 10) prepared in Example 1-1 at a concentration of 300 nM and culture was carried out for three days (SN-38 treatment). After culturing, organoids were recovered by decomposing Matrigel with Dispase I (Cat #386-02271, Fujifilm Wako Pure Chemical Corporation), washed with Cellotion (Cat #CB051, Nippon Zenyaku Kogyo Co., Ltd.), and the washed organoids were suspended in a new Matrigel and dispensed at 20 μL/well into a 96-well plate in which 20-30 μL/well of Matrigel was gelled beforehand. By centrifuging immediately after dispensing, the organoids were aligned on a single plane, making it easier to observe under a microscope. After gelling Matrigel at 37° C., 200 μL/well of an organoid culture medium (Example 1-1) was added and re-culture was carried out at 37° C. in a 5% CO2 environment.
In order to confirm the contribution of GPX1 and GPX2 towards the regrowth of organoids, the gamma-glutamylcysteine synthetase inhibitor L-buthionine-sulfoximine (BSO, Cat #B2515, Merck, 200 μM) and the thioredoxin reductase inhibitor auranofin (AUR, Cat #A6733, Merck, 200 nM) were added upon re-culture in the re-culture method of Example 2-1, and cell proliferation was measured by CellTiter-Glo 3D Cell Viability Assay (FIG. 12).

[2] = tested on: GPX2; test: RNA-seq gene expression analysis of SN-38-treated organoids; conditions: organoids day 10 treated with 300 nM SN-38 for three days vs untreated organoids; n=3, FIG. 10
Experimental: (§1) The gene expression of the organoids prepared in Example 1-1 was analyzed by RNA-seq. First, total RNA was prepared from 2D-cultured cells and 3D-cultured organoids (day 10) cultured in Example 1-1 using TRIzol Reagent (Cat #15596018, Thermo Fisher Scientific). The quality of the purified total RNA was verified through RNA integrity number (RIN) measured using an Agilent 2100 Bioanalyzer (Agilent) to confirm that the RIN was greater than 9. Next, cDNAs were synthesized and amplified from 1 ng of total RNA using the SMART-Seq v4 Ultra Low Input RNA Kit for Sequencing (Takara Bio). Subsequently, a library was prepared using the Nextera XT DNA Library Prep kit (Illumina), and sequenced at 75 bp paired-end reads using the NextSeq500 system (Illumina). The obtained sequence information was mapped to NCBI RefSeq transcript sequence using RSEM software (v1.2.31), and the gene expression level was calculated by FPKM (Fragments Per Kilobase of exon model per Million mapped reads).
(§2) Gene expression analysis was performed on the organoids of Example 1-1 (day 10) and the SN-38-treated organoids of Example 2-1 using RNA-seq in the same manner as in Example 1-2 (n=3).

[3] = tested on: GPX1; test: as above; conditions: organoids day 10 treated with 300 nM SN-38 for three days vs untreated organoids; n=3, FIG. 10
Experimental: as §1, §2

[4] = tested on: LGR5; test: FACS measurement of LGR5 expression in organoids; conditions: organoids immediately after SN-38 treatment; FIG. 8
Experimental: […] […] […] The resulting cells were reacted with 2 μg/mL anti-LGR5 antibody (clone 2L36 (Stem Cells, 30, 2631-2644 (2012))) or control mouse IgG2a antibody (clone MG2a-53, Cat #401502, BioLegend) at 4° C. for 1 hour, and then reacted with a PE-labeled secondary antibody (Cat #P-21139, Thermo Fisher Scientific) for 30 minutes at 4° C. Then dead cells were stained with 7-AAD Viability Dye (Cat #A07704, Beckman Coulter) and measured with a flow cytometer (BD FACSAria III, BD Biosciences). PBS containing 2% fetal bovine serum and 0.1% NaN3 was used as the buffer. Data were analyzed using BD FACSDiva (version 8.0.1, BD Biosciences) and FlowJo (version 7.6.5, BD Biosciences).

[5] = tested on: PLR123 organoids; test: Pathological (structural) analysis of organoids after SN-38 treatment; conditions: after 300 nM SN-38 for three days; new luminal structure formed from surviving cells during re-culture; FIG. 7
Experimental: In order to observe the structure of the organoids produced in Example 1-1 in detail, a pathological analysis was performed according to a previous report (J. Toxicol. Pathol. 31, 81-85 (2018)). Specifically, after removing the culture supernatant from each of the three-dimensional cultures (day 7, day 10, day 12, and day 13), 4% paraformaldehyde/phosphate buffer (Cat #09154-14, Nacalai Tesque) was added, and fixation was carried out at room temperature for 30 minutes. Matrigel was decomposed by pipetting, and organoids were collected in a centrifuge tube and washed. Subsequently, the organoids were suspended in a warmed 2% aqueous agarose solution (agarose, Type IX, Cat #A5030, Merck), centrifuged, and then cooled on ice to gel the agarose. This was treated by the AMeX method and embedded in paraffin. Paraffin blocks were sliced and stained with hematoxylin and eosin (HE) or Alcian blue-Periodic acid-Schiff (AB-PAS) by standard methods. Further, anti-LGR5 antibody (clone 2U2E-2 (Stem Cells, 30, 2631-2644 (2012))) and anti-Ki-67 antibody (clone MIB-1, Cat #M7240, Agilent) were used for immunofluorescent staining of the paraffin block sections. […]
The structure of the regrowing organoids was analyzed by pathological analysis in the same manner as in Example 1-3. […]

[6] = tested on: GPX2; test: IHC protein expression analysis of organoids; conditions: immediately after 300 nM SN-38 treatment; expression continued on day 2 of regrowth; FIG. 11
Experimental: (§3) The protein expression of GPX1 (Uniprot ID: P07203, Refseq accession No. NP_000572) and GPX2 (Uniprot ID: P18283, Refseq accession No. NP_002074) was analyzed by IHC. Using an anti-GPX1 antibody (Cat #ab22604, Abcam, 0.5 ng/mL) and an anti-GPX2 antibody (Cat #ab137431, Abcam, 0.5 ng/mL) with the Envision system (Cat #K4003, Agilent) and peroxidase-diaminobenzidine reaction, the organoids of Example 1-1 (day 10), the SN-38-treated organoids of Example 2-1, and the regrowing organoids of Example 2-1 (day 2, day 6) were each stained. The results of IHC analysis confirmed that the expression of GPX1 and GPX2 increased immediately after the treatment with SN-38 and expression continued even on day 2 of regrowth (FIG. 11).

[7] = tested on: GPX1; test: IHC protein expression analysis of organoids; conditions: immediately after 300 nM SN-38 treatment; expression continued on day 2 of regrowth; FIG. 11
Experimental: as §3

Structure (SMILES)	organoid regrowth (cell proliferation) [1]	expression of GPX2 (RNA-seq) [2]	expression of GPX1 (RNA-seq) [3]	LGR5 expression (FACS) [4]	organoid structure [5]	protein expression of GPX2 (IHC) [6]	protein expression of GPX1 (IHC) [7]
CC(=O)OC[C@H]1O[C@@H]([S-])[C@H](OC(C)=O)[C@@H](OC(C)=O)[C@@H]1OC(C)=O.CCP(CC)CC.[Au+] [AUR, auranofin]	suppressed only when both inhibitors were used in combination	–	–	–	–	–	–
CCCCS(=N)(=O)CCC(N)C(=O)O [BSO, L-buthionine-sulfoximine]	suppressed only when both inhibitors were used in combination	–	–	–	–	–	–
CCc1c2c(nc3ccc(O)cc13)-c1cc3c(c(=O)n1C2)COC(=O)[C@]3(O)CC [SN-38, 7-ethyl-10-hydroxycamptothecin]	–	increased by two-fold or more	increased by two-fold or more	almost no LGR5 expression was observed	once disrupted	increased	increased
